Laboratory results: patent US20130084640A1, “ANIMAL CELL CULTURE MEDIA COMPRISING NON ANIMAL OR PLANT DERIVED NUTRIENTS” (LIFE TECHNOLOGIES CORPORATION, priority 1999, published 2013)

Test system: VERO cells
Test: VERO cell growth in basal medium with non-animal supplements (mean cell count over subcultures, RGE)
Format: cell-based
Description: No attachment factors or coating of the plastic surface are required for the culture of VERO cells. At 3 to 4 days the cells were removed using standard cell culture techniques. The surface of the culture was first washed with Dulbecco's Phosphate Buffered Saline (DPBS) and then 1.0 ml Trypsin-EDTA (Life Technologies, Inc., Rockville, Md.) was added. The digest was allowed to sit on the cell surface for 3 to 5 minutes or until the cells rounded up and began to detach from the surface of the flask. The cells were completely detached by vigorous agitation against the palm of the hand and then 1.5 ml of soybean trypsin inhibitor was added to quickly neutralize enzymatic activity. The cells were counted under the microscope using trypan blue straining solution and new cultures plated at 2.5×10^3 cells per 25 cm^2 flask. Incubation was at 37° C. in 5% CO^2 in air. The cultures were passaged for a total of 4 subcultures and the mean cells per subculture determined from the counts of the final 3 subcultures (P2+P3+P4[…]). Initial studies were designed to formulate a culture medium completely devoid of animal proteins that supports the culture of animal cells. To this end, enzymatic hydrolysates of a variety of non-animal sources were examined as supplements in the basal medium described in Example 1. Hydrolysates of wheat gluten (HYPEP 4301 I, designated below us “Wheat Hydrolysate 1”, and HYPEP 8382, designated below as “Wheat Hydrolysate 2”). soy (HY—SOY) and rice (HYPEP 5115), as well as an extract of baker's yeast (HY-YEST 444) were obtained from Quest International (Norwich, N.Y.) and were formulated into the basal medium of Example 1 at 200 mg/liter. […] To more closely examine their efficacy as supplements for the present media, rice hydrolysates were supplemented into basal media at differing concentrations. These media were then used to examine VERO cell growth as described above. Cell counts were compared to those obtained in basal medium that was unsupplemented (negative control) or to Earle's Modified Eagle's Medium (EMEM) supplemented with 5% fetal bovine serum (FBS; positive control). […] To examine additional sources of non-animal peptides and vitamins as supplements for the present media, extracts of yeast, soy and potato were obtained from Quest International (Norwich, N.Y.) and were supplemented into basal media at differing concentrations. Yeast extract (YE) was also examined as a co-supplement with rice hydrolysate. These media were then used to examine VERO cell growth as described above. Cell counts were compared to those obtained with EMEM supplemented with 5% FBS. […] RGE was calculated as described in Example 2. To more closely examine the use of yeast extract as a supplement in the present media, preparations of YE or an ultrafiltrate of YE (“YEU”) were supplemented into basal media in the presence or absence of 100 mg/liter of rice hydrolysate. These media were then used to examine VERO cell growth as described above. Cell counts were compared to those obtained in EMEM supplemented with 5% FBS (positive control). […] RGE was calculated as described in Example 2. […] These media were then used to examine VERO cell growth as described above. Cell counts were compared to those obtained in basal medium that was unsupplemented (negative control) or to EMEM supplemented with 5% FBS (positive control). […] RGE was calculated as described in Example 2. […] The results in this table represent the mean cells per 25 cm^2 flask in duplicate over 4 subcultures.

## EGF: recombinant human EGF (epidermal growth factor)
Table 6, 0.5 mg/L in basal medium
  Mean Cell Count: 8.0 × 10^5
Table 6, 0.5 mg/L, relative to 5% FBS control
  RGE: 34
Table 6, 1 mg/L in basal medium
  Mean Cell Count: 11.4 × 10^5
Table 6, 1 mg/L, relative to 5% FBS control
  RGE: 49
Table 6, 5 mg/L, relative to 5% FBS control
  RGE: 51
Table 6, 10 mg/L in basal medium
  Mean Cell Count: 22.6 × 10^5
Table 7, 5 mg/L
  Mean Cell Count: 20.2 × 10^5
Table 7, 5 mg/L, relative to 5% FBS control
  RGE: 76
Table 7, 6 mg/L
  Mean Cell Count: 19.3 × 10^5
Table 7, 6 mg/L, relative to 5% FBS control
  RGE: 73
Table 7, 7 mg/L
  Mean Cell Count: 19.6 × 10^5
Table 7, 7 mg/L, relative to 5% FBS control
  RGE: 74
Table 7, 8 mg/1.
  Mean Cell Count: 21.0 × 10^5
Table 7, 8 mg/1., relative to 5% FBS control
  RGE: 79
Table 7, 9 mg/L
  Mean Cell Count: 20.7 × 10^5
Table 7, 9 mg/L, relative to 5% FBS control
  RGE: 78
Table 7, 10 mg/L
  Mean Cell Count: 19.5 × 10^5
Table 7, 10 mg/L, relative to 5% FBS control
  RGE: 73
Table 8, 5 mg/L, as % of 0 mg/L control
  RGE: 137%
Table 8, 5 mg/L, mean cells per 25 cm^2 flask in duplicate over 4 subcultures
  Mean Cell Count: 7.0 × 10^5
Table 8, 6 mg/L, as % of 0 mg/L control
  RGE: 118%
Table 8, 6 mg/L, over 4 subcultures
  Mean Cell Count: 6.0 × 10^5
Table 8, 7 mg/L, as % of 0 mg/L control
  RGE: 139%
Table 8, 7 mg/L, over 4 subcultures
  Mean Cell Count: 7.1 × 10^5
Table 8, 8 mg/L, as % of 0 mg/L control
  RGE: 143%
Table 8, 8 mg/L, over 4 subcultures
  Mean Cell Count: 7.3 × 10^5
Table 8, 9 mg/L, as % of 0 mg/L control
  RGE: 145%
Table 8, 9 mg/L, over 4 subcultures
  Mean Cell Count: 7.4 × 10^5
Table 8, 10 mg/L, as % of 0 mg/L control
  RGE: 133%
Table 8, 10 mg/L, over 4 subcultures
  Mean Cell Count: 6.8 × 10^5
